# Assays:
# [1] = Reaction with L-lysine (amino acids) to mimic skin binding; colour and UV-VIS of the dye formed; conditions: for color of dye produced by reaction with L-lysine / λmax of dye produced after reaction with L-lysine: methanol, 2 equivalents L-lysine, room temperature; for color of dye produced by reaction with L-lysine: open air; for λmax of dye produced after reaction with L-lysine: open air (44 hours for Compound 1, overnight for others); for color produced upon reaction with amino acids: Additional Color Combinations; for color of solution after the addition of L-lysine: after addition of L-lysine ("Add Lysine"/"Lysine added"); for color of solution 1 hr after the addition of L-lysine: 1 hr after L-lysine; for color of L-lysine reaction solution after dilution: after dilution (vial at left); for color of solution before the addition of L-lysine: before L-lysine (Time 0)
# Experimental: Compound 1 was weighed out (0.03 mmol) into a small vial equipped with a magnetic stir bar. To this vial, 1 mL of methanol was added and stirred until solubilized. L-lysine was then added to the stirred solution (2 equivalents) and the reaction mixture was capped and stirred over 44 hours at room temperature. A needle was punctured through the vial cap to ensure the reaction is conducted under open air. This method produced a yellow dye with a λmax=436 nm. See also FIGS. 26A and 26B.
# Compound 10 was weighed out (n=0.03 mmol) into a small vial equipped with a magnetic stir bar. To this, 1 mL of methanol was added and stirred until solubilized. L-lysine was then added to the stirred solution (2 equivalents) and the reaction mixture was capped and stirred overnight at room temperature. A needle was punctured through the vial cap to ensure the reaction is conducted under open air. This produced a yellow dye with a λmax=433 nm.
# Compound 14 was weighed out (n=0.03 mmol) into a small vial equipped with a magnetic stir bar. To this, 1 mL of methanol was added and stirred until solubilized. L-lysine was then added to the stirred solution (2 equivalents) and the reaction mixture was capped and stirred overnight at room temperature. A needle was punctured through the vial cap to ensure the reaction is conducted under open air. This produces a red dye with a λmax=480 nm.
# Compound 11 was weighed out (n=0.03 mmol) into a small vial equipped with a magnetic stir bar. To this, 2.5 mL of methanol was added followed by L-lysine (0.06 mmol, 2 equivalents). The reaction mixture was stirred for 24 hours at room temperature under open air. Compound 11 and Compound 11+lysine were diluted with methanol to make 0.06 mM solutions for UV-VIS characterization.
# Compound 13 was weighed out (n=0.03 mmol) into a small vial equipped with a magnetic stir bar. To this, 1.5 mL of methanol was added followed by L-lysine (0.06 mmol, 2 equivalents). The reaction mixture was stirred for 24 hours at room temperature under open air. Compound 13+lysine were diluted with methanol to make 0.06 mM solutions for UV-VIS characterization.
# Compound 5 was weighed out (n=0.05 mmol) into a small vial equipped with a magnetic stir bar. To this, 2.5 mL of methanol was added followed by L-lysine (0.1 mmol, 2 equivalents). The reaction mixture was stirred for 24 hours at room temperature under open air. Compound 5 and Compound 5+lysine were diluted with methanol to make 0.1 mM solutions for UV-VIS characterization.
# Compound 7 was weighed out (n=0.04 mmol) into a small vial equipped with a magnetic stir bar. To this, 2 mL of methanol was added followed by L-lysine (0.08 mmol, 2 equivalents). The reaction mixture was stirred for 24 hours at room temperature under open air. Compound 7 and Compound 7+lysine were diluted with methanol to make 0.1 and 0.15 mM solutions, respectively, for UV-VIS characterization.
# Compound 9 was weighed out (n=0.03 mmol) into a small vial equipped with a magnetic stir bar. To this, 1.5 mL of methanol was added followed by L-lysine (0.06 mmol, 2 equivalents). The reaction mixture was stirred for 24 hours at room temperature under open air. Compound 9 and Compound 9+lysine were diluted with methanol to make 0.1 and 0.15 mM solutions, respectively, for UV-VIS characterization.
# Genipin was weighed out (n=0.03 mmol) into a small vial equipped with a magnetic stir bar. To this, 1.5 mL of methanol was added followed by L-lysine (0.06 mmol, 2 equivalents). The reaction mixture was stirred for 24 hours at room temperature under open air. Genipin+lysine were diluted with methanol to make 0.06 mM solutions for UV-VIS characterization.
# Compound 12 was weighed out (n=0.03 mmol) into a small vial equipped with a magnetic stir bar. To this, 1.5 mL of methanol was added followed by L-lysine (0.06 mmol, 2 equivalents). The reaction mixture was stirred for 24 hours at room temperature under open air. […]
# [2] = Color profile of single, binary and ternary dye compositions (Table 5); conditions: total dye in the final formulation 0.008-0.40 mmol/g
SMILES,color of dye produced by reaction with L-lysine [1],λmax of dye produced after reaction with L-lysine [1],color produced upon reaction with amino acids [1],color of solution after the addition of L-lysine [1],color of L-lysine reaction solution after dilution [1],color of solution before the addition of L-lysine [1],colors observed with L-lysine (FIG. 33) [1],also measured
"O=C1C(O)=C(c2ccccc2)C(=O)c2ccccc21 [Compound 14, 2-Hydroxy-3-phenyl-1,4-Naphthalenedione]",red,480 nm,,,,,,
CCOC(=O)C(=CC1=CCC2C(C(=O)OC)=COC(OC(C)=O)C12)C(=O)OCC (stereo not drawn) [Compound 11],,,vibrant red,,,,,
COC(=O)C1=COC(O)C2C1CC1COC12O (stereo not drawn) [Compound 10],yellow,433 nm,,light brown,,,,
COC(=O)C1=COC(O)C2C(C=O)=CCC12 (stereo not drawn) [Compound 1],yellow,436 nm,vibrant yellow,dark yellow,yellow,colorless,yellow,color of solution 1 hr after the addition of L-lysine [1]: dark brown; color of solution at 44 hours after the addition of L-lysine ([1]; 44 hours): brown
CCN(CC)C(=O)C1=CCC2C(C(=O)OC)=COC(O)C12 (stereo not drawn) [Compound 13],,,vibrant orange,,,,,
COC(=O)C1=COC(O)[C@@H]2C(/C=C/c3ccc([N+](=O)[O-])cc3)=CC[C@H]12 (stereo partly drawn) [Compound 9],,,vibrant red,,,,,
COC(=O)C1=COC(O)C2C(C(=O)O)=CCC12 (stereo not drawn) [Compound 12],,,vibrant green,light yellow,light yellow,colorless,light yellow,color of solution at 18 hours after the addition of L-lysine ([1]; 18 hours): dark brown
"COC(=O)C1=CO[C@@H](O)[C@@H]2C(CO)=CC[C@H]12 [genipin, reference compound]",,,,yellow,light blue,colorless,light blue,color of solution 1 hr after the addition of L-lysine [1]: dark blue
COC(=O)C1=COC(OC(C)=O)C2C(C=O)=CCC12 (stereo not drawn) [Compound 2],,,,,,,,Color when reacted with amino acids [2]: Vibrant Red
COC(=O)C1=COC(O)[C@@H]2C(/C=C/c3ccccc3)=CC[C@H]12 (stereo partly drawn) [Compound 7],,,vibrant red,,,,,

# From US20240033200A1, “SEMI-PERMANENT TATTOOS” (Inkbox Ink Inc., priority 2020, published 2024)
